The nature of series [1]: Light stability: near-infrared fluorescence intensity of solutions kept at room temperature for 3 days. The note with it: 50 μl of solution (0.01% ICG) in tube, after 3 days. Type of series: physicochemical. The procedure:
50 μl of the prepared ICG/γ-PGA complex solution was dispensed into a 1.5 Ml tube, and then the near-infrared fluorescence spectrum thereof was measured using a fluorescence spectrophotometer (FluoroMate FS-2) (see FIG. 1).

Series [2] in a line: In vivo near-infrared imaging of the sentinel lymph node after subcutaneous footpad injection. Also noted: species or system BALB/c nude mice. To be noted: 0.01% solution, 50 μl s.c. into left forefoot, 30 minutes after injection. The protocol: In animal tests, 6-week-old female BALB/c nude mice (SLC Inc., Japan) with no pathogens were used. All the tests were performed under the approval of the Laboratory Animal Center, Chungnam National University.
For data acquisition and analysis, images (see FIG. 3) were obtained using a home-made NIR optical imaging system (see FIG. 2) manufactured by the present inventors. Herein, the near-infrared optical imaging system comprises a light source consisting of a 500 mW fiber-type laser, an emission filter, a lens system equipped with a microzoom, and a near-infrared detector (NIR CCD detector) (see FIG. 2). In the near infrared imaging system, the intensity of fluorescence appears as a pseudo color, and more red fluorescence indicates stronger intensity.
Before imaging, mice were anesthetized by intraperitoneally injecting a 2.5% avertin (2,2,2-tribromoethanol-tert-amyl alcohol, Sigma) solution at a dose of 0.01 Ml/g weight. 50 μl of each of an ICG solution (0.01%), ICG/γ-PGA (50 kDa) complex solutions (0.01%, 0.1% and 1%) and ICG/γ-PGA (7000 kDa) complex solutions (0.01%, 0.1% and 1%) was injected into the left forefoot of each nude mouse (footpad, subcutaneous injection), and after 5 min, 20 min and 30 min, the fluorescence of the sentinel lymph node was measured. […]

`CC1(C)C(/C=C/C=C/C=C/C=C2\N(CCCCS(=O)(=O)O)c3ccc4ccccc4c3C2(C)C)=[N+](CCCCS(=O)(=O)[O-])c2ccc3ccccc3c21` [ICG, Indocyanine green]: the “fluorescence intensity (light stability)” value in series [1] is given as “rapidly decreased”. In addition, in series [2], the “intensity of fluorescence emitted from the sentinel lymph node” value is “very weak”; the “retention in the sentinel lymph node / migration to other lymph nodes” value is “did not remain in the sentinel lymph node and migrated to other lymph node”.
